According to US6291640A, “Peptidomimetic inhibitors of the human cytomegalovirus protease” (Boehringer Ingelheim Ltd., priority 1998, dated 2001):
Starred links: 1 amine or outer side, 2 acyl side, 3 side chain; linkers in the order of their positions; H or OH if unused. Non-standard residues stand in square brackets, D forms with d. Residues, ends and D or L forms follow the SMILES beside them. ξ: configuration not given here. *: point of attachment. ξ3Amino2oxobutanoyl = CC(N[*:1])C(=O)C(=O)[*:2]; NHBn = c1ccc(CN*)cc1; ξNva = CCCC(N)C(=O)O; CF3 = FC(F)(F)*

Target: T1, HCMV No protease (Human cytomegalovirus, UniProt P16753)
T1 construct: at a position located near the center of the precursor (R-site) to excise the catalytic domain (No)
Test: biochemical
Details: not given
Protocol: HCMV No protease assay: HCMV No protease was assayed with an internally quenched fluorogenic substrate based on the maturation cleavage site (Abz-[…](3-NO2)R-OH, kcat /KM =260 M^-1 s^-1) . […] A protocol adaptable to a 96-well plate format was designed for the determination of IC50 values of inhibitors. […] After this period, enzymatic hydrolysis was initiated by addition of the fluorogenic substrate and the reaction was performed for 2 hr at 30° C. […] No quenching was required before fluorescence measurement since the total scanning time by the plate reader accessory was brief relative to the duration of the reaction. The incubation buffer (essentially similar to the pre-incubation buffer) contained 50 mM Tris/HCl pH 8, 0.5M Na2 SO4, 50 mM NaCl, 0.1 mM EDTA, 1 mM TCEP, 3% v/v DMSO and 0.05% w/v Casein. The final concentrations of HCMV N, protease (expressed in terms of total monomer concentration) and substrate were 100 nM and 5 μM respectively. IC50 values were obtained through fitting of the inhibition curve to a competitive inhibition model using SAS NLIN procedure. The mode of inhibition was determined by measurements of the initial rates (in cuvettes) at various substrate (Abz-Tbg-Tbg-Asn(Me)2 -Ala-SSRLY(3-NO2)R-OH) and inhibitor concentrations using the same conditions as above.

T1 sequence (P16753 1-256): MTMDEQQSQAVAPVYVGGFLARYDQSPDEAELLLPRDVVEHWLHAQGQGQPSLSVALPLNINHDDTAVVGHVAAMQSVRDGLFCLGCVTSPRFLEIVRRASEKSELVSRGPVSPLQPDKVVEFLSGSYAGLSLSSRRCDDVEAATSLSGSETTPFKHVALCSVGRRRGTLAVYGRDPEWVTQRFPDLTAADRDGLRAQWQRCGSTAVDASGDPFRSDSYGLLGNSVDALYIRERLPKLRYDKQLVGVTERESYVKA

| SMILES | IC50 [µM] |
| --- | --- |
| CC(NC(=O)[C@H](CC(=O)N(C)C)NC(=O)[C@@H](NC(=O)CC(C)(C)C)C(C)(C)C)P(=O)(Oc1ccccc1)Oc1ccccc1 (stereo partly drawn) [Compound 79, Diphenyl N4 ,N4-dimethyl-N1-(1-aminoethylphosphinate)-(2S)-2-{[(1S)-2,2-dirmethyl-1-(neopentylcarboxamido)propyl]carboxamido}butanediamide] | 0.66 ± 0.06 |

Same assay, conditions: IC50 (μM)

| SMILES | IC50 [µM] |
| --- | --- |
| CC(=O)N[C@@H](CO)C(=O)N[C@@H](Cc1ccc(O)cc1)C(=O)N[C@H](C(=O)N[C@@H](CCCCN)C(=O)NC(C)C(=O)C(=O)NCc1ccccc1)C(C)C (stereo partly drawn) [Compound 218, Ac-Ser-Tyr-Val-Lys-Ala(d,l)-C(O)-NH-CH2 -Ph] (Ac-SYVK[ξ3Amino2oxobutanoyl]-NHBn) | 9.4 |

Same assay, conditions: inhibitor pre-incubated 5 hr at 30° C. with enzyme, fluorogenic substrate; read-out: IC50

| SMILES | IC50 [µM] |
| --- | --- |
| C[C@H](NC(=O)[C@H](CC(=O)N1CCCC1)NC(=O)[C@@H](NC(=O)CC(C)(C)C)C(C)(C)C)C(=O)c1nc2ccccc2o1 [Compound 304] | 0.5 |
| CC(NC(=O)[C@H](CC(=O)N(C)C)NC(=O)[C@@H](NC(=O)[C@@H](NC(=O)OC(C)(C)C)C(C)C)C(C)C)C(=O)C(=O)NCC(C)(C)C (some centres unmarked) [Compound 402] | 4.3 |
| CC[C@@H](NC(=O)C(=O)C(C)NC(=O)[C@H](CC(=O)N(C)C)NC(=O)[C@@H](NC(=O)[C@@H](NC(=O)CCCCCN)C(C)(C)C)C(C)(C)C)c1ccccc1 (some centres unmarked) [Compound 97] | 0.073 |
| CC(NC(=O)[C@H](CC(=O)N(C)C)NC(=O)[C@@H](NC(=O)[C@@H](NC(=O)OC(C)(C)C)C(C)C)C(C)C)C(=O)C(=O)Nc1ccccc1 (some centres unmarked) [Compound 410] | 1.5 |
| Cc1ccc2nc(C(=O)C(C)NC(=O)[C@H](CC(=O)N(C)C)NC(=O)[C@@H](NC(=O)CC(C)(C)C)C(C)(C)C)oc2c1 (stereo partly drawn) [Compound 82, N4,N4-dimethyl-N1-[1-methyl-2-(6-methyl-1,3-benzoxazol-2-yl)-2-oxoethyl]-(2S)-2-{[(1S)-2,2-dimethyl-1-(neopentylcarboxamido)propyl]carboxamido}butanediamide] | 0.6 ± 0.1 |
| CC(NC(=O)[C@H](CC(=O)NC(C)(C)C)NC(=O)[C@@H](NC(=O)CC(C)(C)C)C(C)(C)C)C(=O)C(F)(F)C(F)(F)F (some centres unmarked) [Compound 306] | 0.5 |
| CC(NC(=O)[C@H](CC(=O)N(C)C)NC(=O)[C@@H](NC(=O)CC(C)(C)C)C(C)(C)C)C(=O)C(=O)NCc1ccc(C(=O)N2CCOCC2)cc1 (some centres unmarked) [Compound 405] | 0.5 |
| CC(NC(=O)[C@H](CC(=O)N1CCOCC1)NC(=O)[C@@H](NC(=O)CC(C)(C)C)C(C)(C)C)C(=O)C(F)(F)C(F)(F)F (some centres unmarked) [Compound 308] | 0.3 |
| CC(NC(=O)[C@H](CC(=O)N(C)C)NC(=O)[C@@H](NC(=O)[C@@H](NC(=O)OC(C)(C)C)C(C)C)C(C)C)C(=O)C(=O)NCC1CCCCC1 (some centres unmarked) [Compound 413] | 4.4 |
| CC(NC(=O)[C@H](CC(=O)N(C)C)NC(=O)[C@@H](NC(=O)CC(C)(C)C)C(C)(C)C)C(=O)C(=O)NC[C@@H](C)c1ccccc1 (some centres unmarked) [Compound 408] | 0.2 |
| CC[C@@H](NC(=O)C(=O)C(C)NC(=O)[C@H](CC(=O)N(C)CCc1ccccn1)NC(=O)[C@@H](NC(=O)CC(C)(C)C)C(C)(C)C)c1ccccc1 (some centres unmarked) [Compound 309] | 0.12 |
| CC(NC(=O)[C@H](CC(=O)N1CCCC1)NC(=O)[C@@H](NC(=O)CC(C)(C)C)C(C)(C)C)C(=O)C(=O)NCc1ccc(I)cc1 (some centres unmarked) [Compound 98] | 0.34 |
| CC(NC(=O)[C@H](CC(=O)N(C)C)NC(=O)[C@@H](NC(=O)[C@@H](NC(=O)OC(C)(C)C)C(C)C)C(C)C)C(=O)C(=O)Nc1cccc(C(N)=O)c1 (some centres unmarked) [Compound 414] | 1.6 |
| CC(NC(=O)[C@@H](CC(=O)C(NC(=O)CC(C)(C)C)C(C)(C)C)CC(=O)N(C)C)C(=O)C(F)(F)C(F)(F)F (mixture of isomers) [Compound 312, N^4,N^4 -Dimethyl-N^1-[1-(R/ S)-methyl-2-oxo-3,3,4,4,4-pentafluorobutyl]-(2S)-2-{3-[(3,3-dimethyl-1-oxobutyl)-amino]-4,4-dimethyl-2-oxopentyl}-butanediamide] | 5.8 |
| C=CCOC(=O)OCCNC(=O)C(=O)C(C)NC(=O)[C@H](CC(=O)N(C)C)NC(=O)[C@@H](NC(=O)CC(C)(C)C)C(C)(C)C (some centres unmarked) [Compound 401] | 0.59 |
| CCCCC[C@@H](C)NC(=O)C(=O)C(C)NC(=O)[C@H](CC(=O)N(C)C)NC(=O)[C@@H](NC(=O)CC(C)(C)C)C(C)(C)C (some centres unmarked) [Compound 406] | 0.8 |
| CC[C@@H](NC(=O)C(=O)C(C)NC(=O)[C@H](CS(N)(=O)=O)NC(=O)[C@@H](NC(=O)CC(C)(C)C)C(C)(C)C)c1ccccc1 (some centres unmarked) [Compound 310] | 0.97 |
| CC(NC(=O)[C@H](CC(=O)N(C)C)NC(=O)[C@@H](NC(=O)CC(C)(C)C)C(C)(C)C)C(=O)C(=O)N[C@H](C)c1cccc2ccccc12 (some centres unmarked) [Compound 407] | 0.2 |
| CC(NC(=O)[C@H](CC(=O)N(C)C)NC(=O)[C@@H](NC(=O)[C@@H](N)C(C)C)C(C)C)C(=O)C(=O)NCc1ccc(C(F)(F)F)cc1 (some centres unmarked) [Compound 404] | 1.7 |
| CC(NC(=O)[C@@H](CC(=O)[C@@H](NC(=O)CC(C)(C)C)C(C)(C)C)CC(=O)C(C)(C)C)C(=O)C(F)(F)F (some centres unmarked) [Compound 311] | 6.8 |
| CCCC(NC(=O)[C@H](CC(N)=O)NC(=O)[C@@H](NC(=O)[C@@H](NC(C)=O)C(C)C)C(C)C)C(=O)C(F)(F)F (some centres unmarked) [Compound 45] (Ac-VVN[ξNva]-CF3) | > 300 |
| CC(NC(=O)[C@H](CC(=O)N(C)C)NC(=O)[C@@H](NC(=O)[C@@H](NC(=O)OC(C)(C)C)C(C)C)C(C)C)C(=O)C(=O)NCCc1ccccc1 (some centres unmarked) [Compound 412] | 0.85 |
| CC(NC(=O)[C@H](CC(=O)N(C)C)NC(=O)[C@@H](NC(=O)[C@@H](NC(=O)OC(C)(C)C)C(C)C)C(C)C)C(=O)C(=O)NC1CCCCC1 (some centres unmarked) [Compound 411] | 1.8 |
| CC(NC(=O)[C@H](CCC(=O)N(C)C)NC(=O)[C@@H](NC(=O)CC(C)(C)C)C(C)(C)C)C(=O)C(F)(F)C(F)(F)F (some centres unmarked) [Compound 307] | 2 |
| Cc1ccc(NC(=O)C(=O)C(C)NC(=O)[C@H](CC(=O)N(C)C)NC(=O)[C@@H](NC(=O)[C@@H](NC(=O)OC(C)(C)C)C(C)C)C(C)C)cc1 (some centres unmarked) [Compound 409] | 1.4 |
| CC(NC(=O)[C@H](CC(=O)N1CCCC1)NC(=O)[C@@H](NC(=O)CC(C)(C)C)C(C)(C)C)C(=O)C(=O)NCCOCc1ccccc1 (some centres unmarked) [Compound 305] | 0.3 |
| CC[C@@H](NC(=O)C(=O)C(C)NC(=O)[C@H](CC(=O)N(C)C)NC(=O)[C@@H](NC(=O)[C@@H](NC(=O)CCCCCNC(=O)OC(C)(C)C)C(C)(C)C)C(C)(C)C)c1ccccc1 (some centres unmarked) [Compound 96] | 0.057 |

Same assay, conditions: relative to compound 96

| SMILES | improvement of potency (factor) on removal of the Boc group |
| --- | --- |
| CC[C@@H](NC(=O)C(=O)C(C)NC(=O)[C@H](CC(=O)N(C)C)NC(=O)[C@@H](NC(=O)[C@@H](NC(=O)CCCCCN)C(C)(C)C)C(C)(C)C)c1ccccc1 (some centres unmarked) [Compound 97] | 2 |

Same assay, conditions: text of b731; read-out: IC50 value / potency

| SMILES | IC50 [µM] |
| --- | --- |
| CC[C@@H](NC(=O)C(=O)C(C)NC(=O)[C@H](CC(=O)N(C)C)NC(=O)[C@@H](NC(=O)[C@@H](NC(=O)CCCCCN)C(C)(C)C)C(C)(C)C)c1ccccc1 (some centres unmarked) [Compound 97] | < 0.04 |
| CC[C@@H](NC(=O)C(=O)C(C)NC(=O)[C@H](CC(=O)N(C)C)NC(=O)[C@@H](NC(=O)[C@@H](NC(=O)CCCCCNC(=O)OC(C)(C)C)C(C)(C)C)C(C)(C)C)c1ccccc1 (some centres unmarked) [Compound 96] | 0.075 |

Target: T2, porcine pancreatic elastase (PPE) (Sus scrofa, UniProt P00772)
T2 construct: porcine pancreas elastase #1027891 lot 83260521-23; purchased Boehringer Mannheim #1027891
Test: Specificity assay, porcine pancreatic elastase
Type: biochemical
Details: not given
Protocol: The specificity of the compounds was determined against a variety of serine proteases (Human leukocyte and porcine pancreatic elastases (HLE & PPE), bovine pancreas α-chymotrypsin) and one cysteine protease (Human liver cathepsin B). In all cases a 96-well plate format protocol using a calorimetric p-nitroanilide (pNA) substrate specific for each enzyme was used. Each assay included a 1 hr pre-incubation enzyme-inhibitor at 30° C. followed by addition of substrate and hydrolysis to ≈30% conversion as measured by scanning on a UV Thermomax microplate reader. Substrate concentrations were kept as low as possible compared to KM to reduce substrate competition. […] The final conditions for each assay were as followed: 50 mM Tris/HCl pH 8, 0.5 M Na2 SO4, 50 mM NaCl, 0.1 mM EDTA, 3% DMSO, 0.01% Tween-20 with [100 μM Succ-AAPF-pNA and 250 pM α-chymotrypsin], [133 μM Succ-AAA-pNA and 8 nM porcine elastase], or [133 μM Succ-AAV-pNA and 8 nM leukocyte elastase]. 100 mM NaH2 PO4 pH 6, 0.1 mM EDTA, 3% DMSO, 1 mM TCEP, 0.01% Tween-20, 30 μM Z-FR-pNA and 5 nM cathepsin B (the stock enzyme was activated in buffer containing 20 mM TCEP before use).

T2 sequence (P00772 27-266): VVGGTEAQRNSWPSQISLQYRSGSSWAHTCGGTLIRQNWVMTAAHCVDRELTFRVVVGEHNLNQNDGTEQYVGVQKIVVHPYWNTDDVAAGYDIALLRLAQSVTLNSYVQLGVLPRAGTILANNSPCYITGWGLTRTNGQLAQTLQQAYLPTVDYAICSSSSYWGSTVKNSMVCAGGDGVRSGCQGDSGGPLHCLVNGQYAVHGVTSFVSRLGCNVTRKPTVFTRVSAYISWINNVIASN

| SMILES | potency against PPE relative to HCMV protease | inhibition of PPE |
| --- | --- | --- |
| CC(NC(=O)[C@H](CC(=O)N(C)C)NC(=O)[C@@H](NC(=O)CC(C)(C)C)C(C)(C)C)C(=O)c1nc2ccccc2o1 (stereo partly drawn) [Compound 77, N1-[2-(1,3-benzoxazol-2-yl)-1-methyl-2-oxoethyl]-N4,N4-dimethyl-(2S)-2-{[(1S)-2,2-dimethyl-1-(neopentylcarboxamido)propyl]carboxamido}butanediamide] | seven fold more potent against PPE than against HCMV protease | – |
| CC(NC(=O)[C@H](CC(=O)N(C)C)NC(=O)[C@@H](NC(=O)CC(C)(C)C)C(C)(C)C)C(=O)c1nc2ncccc2o1 (stereo partly drawn) [Compound 81, N4,N4-dimethyl-N1-(1-methyl-2-[1,3]oxazolo[4,5-b]pyridin-2-yl-2-oxoethyl)-(2S)-2-{[(1S)-2,2-dimethyl-1-(neopentylcarboxamido)propyl]carboxamido} butanediamide] | – | not an inhibitor of PPE |

Same assay, conditions: 1 hr pre-incubation at 30° C., Succ-AAA-pNA; read-out: IC50 against PPE

| SMILES | IC50 [nM] |
| --- | --- |
| CC(NC(=O)[C@H](CC(=O)N(C)C)NC(=O)[C@@H](NC(=O)CC(C)(C)C)C(C)(C)C)C(=O)c1nc2ccccc2s1 (stereo partly drawn) [Compound 80, N1-[2-(1,3-benzothiazol-2-yl)-1-methyl-2-oxoethyl]-N4,N4-dimethyl-(2S)-2-{[(1S)-2,2-di-methyl-1-(neopentylcarboxamido)propyl]carboxamido}butanediamide] | 9000 |
